# Source: ChEMBL document CHEMBL3525962, “Novel bioactivation mechanism of reactive metabolite formation from phenyl methyl-isoxazoles” (Drug Metab Dispos, 2012)
# Tested on: Liver microsome
# Assay: Drug metabolism in human liver microsomes assessed as oxidative metabolite formation at 10 uM by LC-MS analysis in presence of NADPH
# Assay type: ADME
compound,measurement,value
Cc1onc(-c2ccccc2)c1NC(=O)NCc1ccc(Cl)cc1Cl,Drug metabolism,metabolite_detected
